Source: the supplement of paper PMC10307832

Legend:
Experiment in all cases: relative viability (nuclei count vs DMSO), 5 days (fraction); higher = more cells survive
Bosutinib + Pictilisib = compound: COc1cc(Nc2c(C#N)cnc3cc(OCCCN4CCN(C)CC4)c(OC)cc23)c(Cl)cc1Cl [Bosutinib] + CS(=O)(=O)N1CCN(Cc2cc3nc(-c4cccc5[nH]ncc45)nc(N4CCOCC4)c3s2)CC1 [Pictilisib] (partner 1 µM)
Procedure, shortened: (§1)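 Relative viability is defined as nuclei in treated wells over nuclei in vehicle wells. Duplicate plates were run and medians reported. Lung cancer cell lines in 1536-well plates were dosed by pin tool one day after seeding, with one drug or with a fixed anchor-drug dose plus five library-drug doses (not always all listed) in √10 steps, and nuclei were counted after 5 days.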

Bosutinib + Lapatinib = compound: COc1cc(Nc2c(C#N)cnc3cc(OCCCN4CCN(C)CC4)c(OC)cc23)c(Cl)cc1Cl [Bosutinib] + CS(=O)(=O)CCNCc1ccc(-c2ccc3ncnc(Nc4ccc(OCc5cccc(F)c5)c(Cl)c4)c3c2)o1 [Lapatinib] (partner 2 µM)
Procedure, shortened: as §1

Bosutinib + Foretinib = compound: COc1cc(Nc2c(C#N)cnc3cc(OCCCN4CCN(C)CC4)c(OC)cc23)c(Cl)cc1Cl [Bosutinib] + COc1cc2c(Oc3ccc(NC(=O)C4(C(=O)Nc5ccc(F)cc5)CC4)cc3F)ccnc2cc1OCCCN1CCOCC1 [Foretinib] (partner 0.25 µM)
Procedure, shortened: as §1

Bosutinib + Bortezomib = compound: COc1cc(Nc2c(C#N)cnc3cc(OCCCN4CCN(C)CC4)c(OC)cc23)c(Cl)cc1Cl [Bosutinib] + CC(C)C[C@H](NC(=O)[C@H](Cc1ccccc1)NC(=O)c1cnccn1)B(O)O [Bortezomib] (partner 0.002 µM)
Procedure, shortened: as §1

Bosutinib + Linsitinib = compound: COc1cc(Nc2c(C#N)cnc3cc(OCCCN4CCN(C)CC4)c(OC)cc23)c(Cl)cc1Cl [Bosutinib] + C[C@]1(O)C[C@@H](c2nc(-c3ccc4ccc(-c5ccccc5)nc4c3)c3c(N)nccn32)C1 [Linsitinib] (partner 1 µM)
Procedure, shortened: as §1

Bosutinib + Olaparib = compound: COc1cc(Nc2c(C#N)cnc3cc(OCCCN4CCN(C)CC4)c(OC)cc23)c(Cl)cc1Cl [Bosutinib] + O=C(c1cc(Cc2n[nH]c(=O)c3ccccc23)ccc1F)N1CCN(C(=O)C2CC2)CC1 [Olaparib] (partner 8 µM)
Procedure, shortened: as §1

Bosutinib + Navitoclax = compound: COc1cc(Nc2c(C#N)cnc3cc(OCCCN4CCN(C)CC4)c(OC)cc23)c(Cl)cc1Cl [Bosutinib] + CC1(C)CCC(c2ccc(Cl)cc2)=C(CN2CCN(c3ccc(C(=O)NS(=O)(=O)c4ccc(N[C@H](CCN5CCOCC5)CSc5ccccc5)c(S(=O)(=O)C(F)(F)F)c4)cc3)CC2)C1 [Navitoclax] (partner 0.5 µM)
Procedure, shortened: as §1

Bosutinib + Alpelisib = compound: COc1cc(Nc2c(C#N)cnc3cc(OCCCN4CCN(C)CC4)c(OC)cc23)c(Cl)cc1Cl [Bosutinib] + Cc1nc(NC(=O)N2CCC[C@H]2C(N)=O)sc1-c1ccnc(C(C)(C)C(F)(F)F)c1 [Alpelisib] (partner 2 µM)
Procedure, shortened: as §1

Bosutinib + Crizotinib = compound: COc1cc(Nc2c(C#N)cnc3cc(OCCCN4CCN(C)CC4)c(OC)cc23)c(Cl)cc1Cl [Bosutinib] + C[C@@H](Oc1cc(-c2cnn(C3CCNCC3)c2)cnc1N)c1c(Cl)ccc(F)c1Cl [Crizotinib] (partner 1 µM)
Procedure, shortened: as §1

Bosutinib = compound: COc1cc(Nc2c(C#N)cnc3cc(OCCCN4CCN(C)CC4)c(OC)cc23)c(Cl)cc1Cl [Bosutinib]
Procedure, shortened: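 After an overnight hold at 37 °C, lung cancer cell lines in 1536-well plates were pinned with five library-drug doses (not always all listed), each √10 from the next, on vehicle-anchored plates. The cells stayed 5 days without fresh medium, then a one-step fix, permeabilisation and Hoechst stain preceded 4× imaging and MetaXpress nuclear counts. A plate passed only with control CV under 25% and at least one doubling. Viability is the median, over plates, of treated-well nuclei relative to vehicle-well nuclei.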

Bosutinib + Luminespib = compound: COc1cc(Nc2c(C#N)cnc3cc(OCCCN4CCN(C)CC4)c(OC)cc23)c(Cl)cc1Cl [Bosutinib] + CCNC(=O)c1noc(-c2cc(C(C)C)c(O)cc2O)c1-c1ccc(CN2CCOCC2)cc1 [Luminespib] (partner 0.01 µM)
Procedure, shortened: as §1

Bosutinib + OSI-027 = compound: COc1cc(Nc2c(C#N)cnc3cc(OCCCN4CCN(C)CC4)c(OC)cc23)c(Cl)cc1Cl [Bosutinib] + COc1cccc2cc(-c3nc([C@H]4CC[C@H](C(=O)O)CC4)n4ncnc(N)c34)[nH]c12 [OSI-027] (partner 0.5 µM)
Procedure, shortened: as §1

Bosutinib + Dasatinib = compound: COc1cc(Nc2c(C#N)cnc3cc(OCCCN4CCN(C)CC4)c(OC)cc23)c(Cl)cc1Cl [Bosutinib] + Cc1nc(Nc2ncc(C(=O)Nc3c(C)cccc3Cl)s2)cc(N2CCN(CCO)CC2)n1 [Dasatinib] (partner 0.075 µM)
Procedure, shortened: as §1

Bosutinib + Phenformin = compound: COc1cc(Nc2c(C#N)cnc3cc(OCCCN4CCN(C)CC4)c(OC)cc23)c(Cl)cc1Cl [Bosutinib] + N=C(N)NC(=N)NCCc1ccccc1 [Phenformin] (partner 250 µM)
Procedure, shortened: as §1

Bosutinib + Tozasertib = compound: COc1cc(Nc2c(C#N)cnc3cc(OCCCN4CCN(C)CC4)c(OC)cc23)c(Cl)cc1Cl [Bosutinib] + Cc1cc(Nc2cc(N3CCN(C)CC3)nc(Sc3ccc(NC(=O)C4CC4)cc3)n2)n[nH]1 [Tozasertib] (partner 0.1 µM)
Procedure, shortened: as §1

## NCI-H1299
Bosutinib + Pictilisib; first compound 0.01 µM
  relative viability: 0.777
Bosutinib + Pictilisib; first compound 0.03162 µM
  relative viability: 0.989
Bosutinib + Pictilisib; first compound 0.1 µM
  relative viability: 0.858
Bosutinib + Pictilisib; first compound 1 µM
  relative viability: 0.515
Bosutinib + Lapatinib; first compound 0.01 µM
  relative viability: 0.969
Bosutinib + Lapatinib; first compound 0.03162 µM
  relative viability: 0.99
Bosutinib + Lapatinib; first compound 0.1 µM
  relative viability: 0.903
Bosutinib + Lapatinib; first compound 1 µM
  relative viability: 0.916
Bosutinib + Foretinib; first compound 0.01 µM
  relative viability: 1.16
Bosutinib + Foretinib; first compound 0.03162 µM
  relative viability: 1.14
Bosutinib + Foretinib; first compound 0.1 µM
  relative viability: 1.13
Bosutinib + Foretinib; first compound 1 µM
  relative viability: 0.989
Bosutinib + Bortezomib; first compound 0.01 µM
  relative viability: 1
Bosutinib + Bortezomib; first compound 0.03162 µM
  relative viability: 1.06
Bosutinib + Bortezomib; first compound 0.1 µM
  relative viability: 1.01
Bosutinib + Bortezomib; first compound 1 µM
  relative viability: 1
Bosutinib + Linsitinib; first compound 0.01 µM
  relative viability: 1.05
Bosutinib + Linsitinib; first compound 0.03162 µM
  relative viability: 0.983
Bosutinib + Linsitinib; first compound 0.1 µM
  relative viability: 1.07
Bosutinib + Linsitinib; first compound 1 µM
  relative viability: 0.92
Bosutinib + Olaparib; first compound 0.01 µM
  relative viability: 1
Bosutinib + Olaparib; first compound 0.03162 µM
  relative viability: 0.982
Bosutinib + Olaparib; first compound 0.1 µM
  relative viability: 0.994
Bosutinib + Olaparib; first compound 1 µM
  relative viability: 0.96
Bosutinib + Navitoclax; first compound 0.01 µM
  relative viability: 1.05
Bosutinib + Navitoclax; first compound 0.03162 µM
  relative viability: 1.06
Bosutinib + Navitoclax; first compound 0.1 µM
  relative viability: 0.995
Bosutinib + Navitoclax; first compound 1 µM
  relative viability: 1.03
Bosutinib + Alpelisib; first compound 0.01 µM
  relative viability: 1.05
Bosutinib + Alpelisib; first compound 0.03162 µM
  relative viability: 1.03
Bosutinib + Alpelisib; first compound 0.1 µM
  relative viability: 1.05
Bosutinib + Alpelisib; first compound 1 µM
  relative viability: 1.2
Bosutinib + Crizotinib; first compound 0.01 µM
  relative viability: 0.947
Bosutinib + Crizotinib; first compound 0.03162 µM
  relative viability: 1
Bosutinib + Crizotinib; first compound 0.1 µM
  relative viability: 0.965
Bosutinib + Crizotinib; first compound 1 µM
  relative viability: 0.942
Bosutinib; 0.01 µM
  relative viability: 1.01
Bosutinib; 0.03162 µM
  relative viability: 1.01
Bosutinib; 0.1 µM
  relative viability: 1.03
Bosutinib; 1 µM
  relative viability: 1.02

## Calu-6
Bosutinib + Pictilisib; first compound 0.01 µM
  relative viability: 0.937
Bosutinib + Pictilisib; first compound 0.03162 µM
  relative viability: 0.923
Bosutinib + Pictilisib; first compound 0.1 µM
  relative viability: 0.867
Bosutinib + Pictilisib; first compound 1 µM
  relative viability: 0.834
Bosutinib + Lapatinib; first compound 0.01 µM
  relative viability: 1.15
Bosutinib + Lapatinib; first compound 0.03162 µM
  relative viability: 1.14
Bosutinib + Lapatinib; first compound 0.1 µM
  relative viability: 1.11
Bosutinib + Lapatinib; first compound 1 µM
  relative viability: 0.893
Bosutinib + Foretinib; first compound 0.01 µM
  relative viability: 0.927
Bosutinib + Foretinib; first compound 0.03162 µM
  relative viability: 0.888
Bosutinib + Foretinib; first compound 0.1 µM
  relative viability: 0.932
Bosutinib + Foretinib; first compound 1 µM
  relative viability: 0.772
Bosutinib + Bortezomib; first compound 0.01 µM
  relative viability: 1.01
Bosutinib + Bortezomib; first compound 0.03162 µM
  relative viability: 0.954
Bosutinib + Bortezomib; first compound 0.1 µM
  relative viability: 1.02
Bosutinib + Bortezomib; first compound 1 µM
  relative viability: 0.905
Bosutinib + Linsitinib; first compound 0.01 µM
  relative viability: 1.05
Bosutinib + Linsitinib; first compound 0.03162 µM
  relative viability: 0.957
Bosutinib + Linsitinib; first compound 0.1 µM
  relative viability: 0.96
Bosutinib + Linsitinib; first compound 1 µM
  relative viability: 0.794
Bosutinib + Olaparib; first compound 0.01 µM
  relative viability: 0.596
Bosutinib + Olaparib; first compound 0.03162 µM
  relative viability: 0.561
Bosutinib + Olaparib; first compound 0.1 µM
  relative viability: 0.598
Bosutinib + Olaparib; first compound 1 µM
  relative viability: 0.472
Bosutinib + Navitoclax; first compound 0.01 µM
  relative viability: 0.814
Bosutinib + Navitoclax; first compound 0.03162 µM
  relative viability: 0.801
Bosutinib + Navitoclax; first compound 0.1 µM
  relative viability: 0.757
Bosutinib + Navitoclax; first compound 1 µM
  relative viability: 0.821
Bosutinib + Alpelisib; first compound 0.01 µM
  relative viability: 0.927
Bosutinib + Alpelisib; first compound 0.03162 µM
  relative viability: 1.07
Bosutinib + Alpelisib; first compound 0.1 µM
  relative viability: 0.958
Bosutinib + Alpelisib; first compound 1 µM
  relative viability: 0.824
Bosutinib + Crizotinib; first compound 0.01 µM
  relative viability: 0.747
Bosutinib + Crizotinib; first compound 0.03162 µM
  relative viability: 0.796
Bosutinib + Crizotinib; first compound 0.1 µM
  relative viability: 0.798
Bosutinib + Crizotinib; first compound 1 µM
  relative viability: 0.788
Bosutinib; 0.01 µM
  relative viability: 1.01
Bosutinib; 0.03162 µM
  relative viability: 1.02
Bosutinib; 0.1 µM
  relative viability: 0.976
Bosutinib; 1 µM
  relative viability: 0.837

## NCI-H1623
Bosutinib + Luminespib; first compound 0.01 µM
  relative viability: 0.645
Bosutinib + Luminespib; first compound 0.03162 µM
  relative viability: 0.565
Bosutinib + Luminespib; first compound 0.1 µM
  relative viability: 0.517
Bosutinib + Luminespib; first compound 1 µM
  relative viability: 0.497
Bosutinib + OSI-027; first compound 0.01 µM
  relative viability: 0.432
Bosutinib + OSI-027; first compound 0.03162 µM
  relative viability: 0.418
Bosutinib + OSI-027; first compound 0.1 µM
  relative viability: 0.45
Bosutinib + OSI-027; first compound 1 µM
  relative viability: 0.416
Bosutinib + Dasatinib; first compound 0.01 µM
  relative viability: 0.38
Bosutinib + Dasatinib; first compound 0.03162 µM
  relative viability: 0.555
Bosutinib + Dasatinib; first compound 0.1 µM
  relative viability: 0.542
Bosutinib + Dasatinib; first compound 1 µM
  relative viability: 0.57
Bosutinib + Foretinib; first compound 0.01 µM
  relative viability: 0.854
Bosutinib + Foretinib; first compound 0.03162 µM
  relative viability: 0.846
Bosutinib + Foretinib; first compound 0.1 µM
  relative viability: 0.866
Bosutinib + Foretinib; first compound 1 µM
  relative viability: 0.64
Bosutinib + Phenformin; first compound 0.01 µM
  relative viability: 0.534
Bosutinib + Phenformin; first compound 0.03162 µM
  relative viability: 0.591
Bosutinib + Phenformin; first compound 0.1 µM
  relative viability: 0.51
Bosutinib + Phenformin; first compound 1 µM
  relative viability: 0.51
Bosutinib + Tozasertib; first compound 0.01 µM
  relative viability: 0.474
Bosutinib + Tozasertib; first compound 0.03162 µM
  relative viability: 0.425
Bosutinib + Tozasertib; first compound 0.1 µM
  relative viability: 0.428
Bosutinib + Tozasertib; first compound 1 µM
  relative viability: 0.399
Bosutinib; 0.01 µM
  relative viability: 0.891
Bosutinib; 0.03162 µM
  relative viability: 0.95
Bosutinib; 0.1 µM
  relative viability: 0.979
Bosutinib; 1 µM
  relative viability: 0.724
